Measured values reported in ChEMBL document CHEMBL5380835, “Discovery of Clinically Used Octenidine as NRAS Repressor That Effectively Inhibits NRAS-Mutant Melanoma” (J Med Chem, 2023).
Calls of active or inactive are those of the source. The calls are words filed in the database; no cut-off is given here.

Assays:
[1] = Binding affinity to 5'-FAM-labeled to NRAS RNA G-quadruplex 5'-r(UGUGGGAGGGGCGGGUCUGGG)-3' (unknown origin) assessed as dissociation constant by fluorescence quenching assay
SK-MEL-2 [2] = assay: Cytotoxicity against human SK-MEL-2 cells expressing NRAS mutant assessed as cell growth inhibition incubated for 48 hrs by MTT assay; assay type: functional, cell-based; details: SK-MEL-2, 48 h
SK-MEL-2 [3] = assay: Antitumor activity against human SK-MEL-2 cells xenografted in BALB/c nude mouse assessed as T/C ratio at 10 mg/kg/day, ip administered for 30 days relative to control; assay type: functional; details: time 30 day
SK-MEL-2 [4] = assay: Antitumor activity against human SK-MEL-2 cells xenografted in BALB/c nude mouse assessed as tumor growth inhibition at 10 mg/kg/day, ip administered for 30 days relative to control; assay type: functional; details: SK-MEL-2, 720 h, time 30 day, read-out: TGI
SK-MEL-2 [5] = assay: Antitumor activity against human SK-MEL-2 cells xenografted in BALB/c nude mouse assessed as tumor growth inhibition at 10 mg/kg/day, ip by electronic caliper method; assay type: functional, organism-based; details: time 30.0 day, TDE = time-dependent effect
SK-MEL-2 [6] = assay: Antitumor activity against human SK-MEL-2 cells xenografted in BALB/c nude mouse assessed as reduction in tumor weight at 10 mg/kg/day, ip administered for 30 days by electronic caliper method; assay type: functional, organism-based; details: time 30.0 day
SK-MEL-2 [7] = assay: Upregulation of NRAS mRNA level in human SK-MEL-2 cells at 1/2 times IC50 incubated for 24 hrs by RT-qPCR analysis; assay type: functional, cell-based
SK-MEL-2 [8] = assay: Effect on NRAS protein translation in human SK-MEL-2 cells at 1/2 times IC50 incubated for 24 hrs by Western blot analysis; assay type: functional, cell-based
SK-MEL-2 [9] = assay: Cytotoxicity against human SK-MEL-2 cells assessed as cell growth inhibition incubated for 24 hrs by MTT assay; assay type: functional, cell-based; details: SK-MEL-2, 24 h

CCCCCNc1cc[n+](CCCCCCCCCC[n+]2ccc(NCCCCC)cc2)cc1
Kd [1]: 1850 nM
IC50 (SK-MEL-2 [2]): 3000 nM

CCCCCCNc1cc[n+](CCCCCCCCCC[n+]2ccc(NCCCCCC)cc2)cc1
Kd [1]: 290 nM
IC50 (SK-MEL-2 [2]): 910 nM

CN(C)/N=N/c1[nH]cnc1C(N)=O [DACARBAZINE]
T/C (SK-MEL-2 [3]): 28.9%
inhibition in vivo at 10 mg/kg/day (SK-MEL-2 [4]): 57.7%
Activity (SK-MEL-2 [5]): Tde
Activity (SK-MEL-2 [6]): Active

CN(C)c1ccc(C(=C2C=CC(=[N+](C)C)C=C2)c2ccc(N(C)C)cc2)cc1 [GENTIAN VIOLET]
Activity (SK-MEL-2 [7]): Active
Activity (SK-MEL-2 [8]): inactive
IC50 (SK-MEL-2 [2]): 1360 nM
IC50 (SK-MEL-2 [9]): 2890 nM
